For this experiment, the target named is T1, chicken gizzard smooth muscle myosin subfragment-1 chemically crosslinked to either cardiac or skeletal actin (Gallus gallus, UniProt P10587).
T1 construct: chicken gizzard smooth muscle myosin subfragment-1; from tissue; host or cells: chicken gizzard
Briefly: Dose dependent smooth muscle myosin ATPase modulation (pyruvate kinase/horseradish peroxidase/pyruvate oxidase-coupled ATPase assay). As to conditions: read-out: IC50 Arithmetic Mean. Type of experiment: biochemical. As to the method:
In Vitro Model of Dose Dependent Smooth Muscle Myosin Atpase Modulation
Screening assays were performed using a pyruvate kinase and lactate dehydrogenase-coupled ATPase assay containing the following reagents: Potassium PIPES (50 mM ), MgCl2 (3 mM ), KCl (100 mM ), ATP (0.15 mM ), DTT (1 mM ), BSA (0.1 mg/ml), NADH (0.5 mM ), PEP (1.5 mM ), pyruvate kinase (4 U/ml), lactate dehydrogenase (8 U/ml), and antifoam (50 ppm) (concentrations expressed are final assay concentrations). The pH was adjusted to 6.80 at 22° C. by addition of potassium hydroxide. Lead optimization assays were performed with a more sensitive pyruvate kinase/horseradish peroxidase/pyruvate oxidase-coupled ATPase assay containing the following reagents: Potassium PIPES (12 mM ), MgCl2 (2 mM ), KCl (100 mM ), ATP (0.15 mM ), BSA (0.05 mg/ml), potassium phosphate (2 mM ), amplex red (0.1 mM ), PEP (0.1 mM ), pyruvate kinase (4 U/ml), horseradish peroxidase (0.5 U/ml), pyruvate oxidase (0.5 U/ml), and antifoam (50 ppm) (concentrations expressed are final assay concentrations). The pH was adjusted to 7.00 at 22° C. by addition of potassium hydroxide.
The protein components specific to this assay are chicken gizzard smooth muscle myosin subfragment-1 that has been chemically crosslinked to either cardiac or skeletal actin using an excess of 1-Ethyl-3-[3-dimethylaminopropyl]carbodiimide hydrochloride and N-hydroxysuccinimide. The exact concentration of the crosslinked smooth muscle myosin in the assay is determined empirically, by titration to achieve a desired rate of ATP hydrolysis. The concentration varies between protein preparations due to variations in the fraction of active molecules in each preparation.
Compound dose response assays are performed by first preparing a dilution series of test compound, each with an assay mixture containing potassium PIPES, MgCl2, KCl, ATP, BSA, potassium phosphate, amplex red, PEP, crosslinked smooth muscle actomyosin (subfragment-1), antifoam, and water. The assay is started by adding an equal volume of solution containing potassium Pipes, MgCl2, KCl, BSA, potassium phosphate, pyruvate kinase, horseradish peroxidase, pyruvate oxidase, antifoam, and water. ATP hydrolysis is monitored by measuring the fluorescence of amplex red (excitation at 480 nm, emission at 615 nm). The resulting dose response curve is fit by the 4 parameter equation y=Bottom+((Top−Bottom)/(1+((IC50/X)^Hill))). The IC50 is defined as the concentration at which ATPase activity is midway between the top and bottom of the dose response curve.

This passage reports IC50 results from patent US7939534B2, “Certain chemical entities, compositions, and methods” (Cytokinetics, Inc., priority 2006, dated 2011).

As to `NCc1ncccc1CNC(=O)c1cc(F)c(N2CC[C@@H](F)C2)nc1NCCc1cccc(F)c1` [Compound 53, (6-((3R)-3-fluoropyrrolidinyl)-5-fluoro-2-{[2-(3-fluorophenyl)ethyl]amino}(3-pyridyl))-N-{[2-(aminomethyl)(3-pyridyl)]methyl}carboxamide], the IC50 is 23 nM.
As to `CC(C)(C)OC(=O)NCc1ncccc1CNC(=O)c1cc(F)c(N2CC[C@@H](O)C2)nc1NCCc1cccc(F)c1` [Compound 54, (6-((3R)-3-hydroxypyrrolidinyl)-5-fluoro-2-{[2-(3-fluorophenyl)ethyl]amino}(3-pyridyl))-N-[(2-{[(tert-butoxy)carbonylamino]methyl}(3-pyridyl))methyl]carboxamide], the IC50 amounted to 6780 nM.
Take `NCc1ncccc1CNC(=O)c1cc(F)c(N2CC[C@@H](O)C2)nc1NCCc1cccc(F)c1` [Compound 55, (6-((3R)-3-hydroxypyrrolidinyl)-5-fluoro-2-{[2-(3-fluorophenyl)ethyl]amino}(3-pyridyl))-N-{[2-(aminomethyl)(3-pyridyl)]methyl}carboxamide]: the IC50 is 125 nM.
In the case of `CC(=O)N1CC=C(c2ccc(C(=O)NCc3cccnc3)c(NCCc3cccc(F)c3)n2)CC1` [Compound 56, (6-(1-acetyl(4-1,2,5,6-tetrahydropyridyl))-2-{[2-(3-fluorophenyl)ethyl]amino}(3-pyridyl))-N-(3-pyridylmethyl)carboxamide], the IC50 came out at 430 nM.
For `O=C(NCc1cccnc1)c1ccc(C2=CCNCC2)nc1NCCc1cccc(F)c1` [Compound 57, (2-{[2-(3-fluorophenyl)ethyl]amino}-6-(4-1,2,5,6-tetrahydropyridyl)(3-pyridyl))-N-(3-pyridylmethyl)carboxamide], the IC50 is 10500 nM.
Take `CC(C)(C)OC(=O)N1CC=C(c2ccc(C(=O)NCc3cccnc3)c(NCCc3cccc(F)c3)n2)CC1` [Compound 58, tert-butyl 4-(6-{[2-(3-fluorophenyl)ethyl]amino}-5-[N-(3-pyridylmethyl)carbamoyl]-2-pyridyl)-1,2,5,6-tetrahydropyridinecarboxylate]: the IC50 worked out at 2150 nM.
`O=C(NCc1cccnc1)c1ccc(C2CCCC2)nc1NCCc1cccc(F)c1` [Compound 59, (6-cyclopentyl-2-{[2-(3-fluorophenyl)ethyl]amino}(3-pyridyl))-N-(3-pyridylmethyl)carboxamide]: the IC50 turned out to be 4410 nM.
For the compound `O=C(NCc1cccnc1)c1ccc(C2=CCC3(CC2)OCCO3)nc1NCCc1cccc(F)c1` [Compound 60, (6-(1,4-dioxaspiro[4.5]dec-7-en-8-yl)-2-{[2-(3-fluorophenyl)ethyl]amino}(3-pyridyl))-N-(3-pyridylmethyl)carboxamide], the IC50 amounted to 1820 nM.
With `COC(=O)N1CC=C(c2ccc(C(=O)NCc3cccnc3)c(NCCc3cccc(F)c3)n2)CC1` [Compound 61, methyl 4-(6-{[2-(3-fluorophenyl)ethyl]amino}-5-[N-(3-pyridylmethyl)carbamoyl]-2-pyridyl)-1,2,5,6-tetrahydropyridinecarboxylate] the figure was 100 nM; with `O=C(NCc1cccnc1)c1ccc(C2=CCCC2)nc1NCCc1cccc(F)c1` [Compound 62, (6-cyclopent-1-enyl-2-{[2-(3-fluorophenyl)ethyl]amino}(3-pyridyl))-N-(3-pyridylmethyl)carboxamide], 637 nM.
With `C[C@H](CNC(=O)c1cc(F)c(N2CCCC2)nc1NCCc1cccc(F)c1)NC(=O)CNC(=O)OC(C)(C)C` [Compound 63, N-{(1R)-2-[(5-fluoro-2-{[2-(3-fluorophenyl)ethyl]amino}-6-pyrrolidinyl(3-pyridyl))carbonylamino]-isopropyl}-2-[(tert-butoxy)carbonylamino]acetamide] the figure was 15100 nM; with `O=C1CC=C(c2ccc(C(=O)NCc3cccnc3)c(NCCc3cccc(F)c3)n2)CC1` [Compound 64, (2-{[2-(3-fluorophenyl)ethyl]amino}-6-(4-oxocyclohex-1-enyl)(3-pyridyl))-N-(3-pyridylmethyl)carboxamide], 671 nM.
With `CC(C)(C)OC(=O)NCc1ncccc1CNC(=O)c1cc(F)c(N2CC[C@@H](F)C2)nc1NCCc1cccc(F)c1` [Compound 65, (6-((3R)-3-fluoropyrrolidinyl)-5-fluoro-2-{[2-(3-fluorophenyl)ethyl]amino}(3-pyridyl))-N-[(2-{[(tert-butoxy)carbonylamino]methyl}(3-pyridyl))methyl]carboxamide], the IC50 amounted to 8240 nM.
`O=C(NCc1cccnc1)c1ccc(C2CCCCC2)nc1NCCc1cccc(F)c1` [Compound 66, (6-cyclohexyl-2-{[2-(3-fluorophenyl)ethyl]amino}(3-pyridyl))-N-(3-pyridylmethyl)carboxamide]: the IC50 came to 4170 nM.
As to `O=C(NCc1cccnc1)c1ccc(C2=CCCCC2)nc1NCCc1cccc(F)c1` [Compound 67, (6-cyclohex-1-enyl-2-{[2-(3-fluorophenyl)ethyl]amino}(3-pyridyl))-N-(3-pyridylmethyl)carboxamide], the IC50 came out at 117 nM.
With `CC(C)(C)OC(=O)NCCCN1C(=O)CC[C@@H]1CNC(=O)c1cc(F)c(N2CCCC2)nc1NCCc1cccc(F)c1` [Compound 68, N-[((2R)-1-{3-[(tert-butoxy)carbonylamino]propyl}-5-oxopyrrolidin-2-yl)methyl](5-fluoro-2-{[2-(3-fluorophenyl)ethyl]amino}-6-pyrrolidinyl(3-pyridyl))carboxamide], the IC50 stood at 3320 nM.
Take `CN(C)C(=O)N1CC=C(c2ccc(C(=O)NCc3cccnc3)c(NCCc3cccc(F)c3)n2)CC1` [Compound 69, (6-[1-(N,N-dimethylcarbamoyl)(4-1,2,5,6-tetrahydropyridyl)]-2-{[2-(3-fluorophenyl)ethyl]amino}(3-pyridyl))-N-(3-pyridylmethyl)carboxamide]: the IC50 is 452 nM.
Turning to `O=C(NCc1cccnc1)c1cc(Br)c(N2CCCC2)nc1NCCc1cccc(F)c1` [Compound 70, (5-bromo-2-{[2-(3-fluorophenyl)ethyl]amino}-6-pyrrolidinyl(3-pyridyl))-N-(3-pyridylmethyl)carboxamide], the IC50 came to 295 nM.
`CN1CC=C(c2ccc(C(=O)NCc3cccnc3)c(NCCc3cccc(F)c3)n2)CC1` [Compound 71, (2-{[2-(3-fluorophenyl)ethyl]amino}-6-(1-methyl(4-1,2,5,6-tetrahydropyridyl))(3-pyridyl))-N-(3-pyridylmethyl)carboxamide]: the IC50 is 4360 nM.
`COC(=O)N1C=CC(c2ccc(C(=O)NCc3cccnc3)c(NCCc3cccc(F)c3)n2)CC1` (stereo not shown) [Compound 72, methyl 4-(6-{[2-(3-fluorophenyl)ethyl]amino}-5-[N-(3-pyridylmethyl)carbamoyl]-2-pyridyl)-1,4,5,6-tetrahydropyridinecarboxylate]: the IC50 stood at 5770 nM.
As to `O=C(NCc1cccnc1)c1ccc(C2=NCCN2)nc1NCCc1cccc(F)c1` [Compound 73, (2-{[2-(3-fluorophenyl)ethyl]amino}-6-(2-imidazolin-2-yl)(3-pyridyl))-N-(3-pyridylmethyl)carboxamide], the IC50 was 56400 nM.
Take `CC(C)(C)OC(=O)NCC(=O)N1CCC[C@@H]1CNC(=O)c1cc(F)c(N2CCCC2)nc1NCCc1cccc(F)c1` [Compound 77, N-[((2R)-1-{2-[(tert-butoxy)carbonylamino]acetyl}pyrrolidin-2-yl)methyl](5-fluoro-2-{[2-(3-fluorophenyl)ethyl]amino}-6-pyrrolidinyl(3-pyridyl))carboxamide]: the IC50 was 13600 nM.
For `NCc1ncccc1CNC(=O)c1cc(F)c(N2CCCC2)nc1NCCc1cccc(F)c1` [Compound 78, N-{[2-(aminomethyl)(3-pyridyl)]methyl}(5-fluoro-2-{[2-(3-fluorophenyl)ethyl]amino}-6-pyrrolidinyl(3-pyridyl))carboxamide], the IC50 was found to be 25.9 nM.
Consider `O=C(NC[C@H]1CCCN1)c1cc(F)c(N2CCCC2)nc1NCCc1cccc(F)c1` [Compound 79, N-[((2R)pyrrolidin-2-yl)methyl](5-fluoro-2-{[2-(3-fluorophenyl)ethyl]amino}-6-pyrrolidinyl(3-pyridyl))carboxamide], for which the IC50 was 1800 nM.
Consider `CC(C)(C)OC(=O)N1CCC[C@@H]1CNC(=O)c1cc(F)c(N2CCCC2)nc1NCCc1cccc(F)c1` [Compound 80, tert-butyl (2R)-2-{[(5-fluoro-2-{[2-(3-fluorophenyl)ethyl]amino}-6-pyrrolidinyl(3-pyridyl))carbonylamino]methyl}pyrrolidinecarboxylate], for which the IC50 was determined as 6860 nM.

The IC50 is the concentration at which inhibition is half-maximal.
